Results on one compound are retold here after publication PMC11371739, “Ginkgolic Acid as a carbapenem synergist against KPC-2 positive Klebsiella pneumoniae” (Frontiers in Microbiology, 2024).

SMILES strings stand for the structures. pIC50: −log10 of the molar value.

For the assay, the target named is T1, KPC-2 (Klebsiella pneumoniae carbapenemase-2) (Klebsiella pneumoniae, UniProt Q9F663).
T1 construct: purified KPC-2 expressed in E. coli BL21(DE3) (pET28a-KPC-2)
The experiment in a line: nitrocefin hydrolysis inhibition assay with purified KPC-2; supported by CD, FTIR and site-directed mutagenesis. The class given is biochemical.

T1 sequence (Q9F663 25-293 limits assumed): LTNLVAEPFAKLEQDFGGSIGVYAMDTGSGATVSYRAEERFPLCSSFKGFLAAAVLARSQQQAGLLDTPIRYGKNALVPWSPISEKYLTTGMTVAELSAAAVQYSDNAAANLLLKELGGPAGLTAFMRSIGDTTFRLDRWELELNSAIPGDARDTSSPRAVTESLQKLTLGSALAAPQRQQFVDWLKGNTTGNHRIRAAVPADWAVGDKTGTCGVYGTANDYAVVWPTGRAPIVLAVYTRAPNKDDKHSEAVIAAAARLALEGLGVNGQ

The compound `CCCCCCCCCCCCCc1cccc(O)c1C(=O)O` [GA, Ginkgolic Acid (C13:0)] showed a pIC50 of 4.83.
